Test results published in patent publication US20250221966A1, “RXFP1 AGONISTS” (BRISTOL-MYERS SQUIBB COMPANY, priority 2021, published 2025).
Where two headings read alike, the source gives them in different places.

Target: T1, human RXFP1 (Homo sapiens, UniProt Q9HBX9)
T1 construct: expressed in transfected cells
T1 sequence (Q9HBX9 1-757): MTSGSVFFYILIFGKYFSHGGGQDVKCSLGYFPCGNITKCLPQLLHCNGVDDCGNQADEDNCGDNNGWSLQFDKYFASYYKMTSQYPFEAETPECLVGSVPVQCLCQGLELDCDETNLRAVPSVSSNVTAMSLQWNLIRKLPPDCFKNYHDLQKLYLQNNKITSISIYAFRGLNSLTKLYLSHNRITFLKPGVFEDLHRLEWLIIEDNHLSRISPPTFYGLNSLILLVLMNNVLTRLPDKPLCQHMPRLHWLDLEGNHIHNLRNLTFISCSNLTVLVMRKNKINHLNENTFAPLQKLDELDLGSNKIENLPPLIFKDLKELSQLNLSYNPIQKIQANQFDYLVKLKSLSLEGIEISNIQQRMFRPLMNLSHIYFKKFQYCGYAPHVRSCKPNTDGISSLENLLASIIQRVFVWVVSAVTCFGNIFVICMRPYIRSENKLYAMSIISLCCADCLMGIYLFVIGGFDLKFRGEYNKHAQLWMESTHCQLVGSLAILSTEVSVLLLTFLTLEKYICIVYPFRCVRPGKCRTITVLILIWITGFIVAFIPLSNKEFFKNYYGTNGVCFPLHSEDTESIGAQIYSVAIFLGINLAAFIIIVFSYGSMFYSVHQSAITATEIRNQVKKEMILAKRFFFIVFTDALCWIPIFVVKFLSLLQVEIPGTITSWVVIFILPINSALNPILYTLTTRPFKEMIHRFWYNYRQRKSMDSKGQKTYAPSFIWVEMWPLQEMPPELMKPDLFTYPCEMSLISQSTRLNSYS
Experiment: RXFP1 cAMP assay (hRXFP1 HEK293 cAMP assay, HTRF)
Assay type: cell-based
In short: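 In a stable human RXFP1 HEK293 line, compounds acted for 30 min at RT in buffer with 0.5 mM IBMX. HTRF then quantified cellular cAMP.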

[1] = HEK293 cells stably expressing human RXFP1, 30 min at room temperature, read-out: cAMP hRXFP1 HEK293 Assay EC50

Row | Compound | EC50 [1] [nM] | EC50 (cAMP hRXFP1 HEK293 Assay EC50, HEK293 cells stably expressing human RXFP1, 30 min at room temperature) [nM]
1 | COc1ccc(C2=NOC3COCC23)cc1C(=O)N[C@H]1[C@@H](C(=O)NCC2CC2)[C@H]2CC[C@@H]1/C2=C\C1CC1 (stereo partly shown) [compound 684] | 642 | –
2 | COc1cc(F)c(F)cc1C(=O)N[C@@H]1C2CCC(/C2=C/c2cnn(C)c2)[C@@H]1C(=O)Nc1ccc(F)c(C(F)(F)F)c1 (stereo partly shown) [compound 66] | 1700 | –
3 | COc1ccc(-c2ccnc(C(F)F)c2)cc1C(=O)N[C@@H]1C2CCC(/C2=C/C2CC2)[C@@H]1C(=O)Nc1ccc(F)c(C(F)(F)F)c1 (stereo partly shown) [compound 284] | 109 | –
4 | COc1ccc(C2=NOC3COCC23)c(F)c1C(=O)N[C@H]1[C@@H](C(=O)Nc2ccc(F)c(C(F)(F)F)c2)[C@H]2CC[C@@H]1/C2=C\C1CC1 (single isomer, unassigned) [compound 693] | 791 | –
5 | COc1ccc(F)cc1C(=O)N[C@@H]1C2CCC(C2=C(C)C)[C@@H]1C(=O)Nc1ccc(F)c(C(F)(F)F)c1 (stereo partly shown) [compound 111] | 860 | –
6 | COc1ccc(-c2cc(C(=O)O)ccc2F)cc1C(=O)N[C@@H]1C2CCC(/C2=C/c2cn(C)nn2)[C@@H]1C(=O)Nc1ccc(F)c(C(F)(F)F)c1 (stereo partly shown) [compound 327] | 2040 | –
7 | COc1cc(F)c(F)cc1C(=O)N[C@@H]1C2CCC([C@@H]1C(=O)Nc1ccc(F)c(C(F)(F)F)c1)C21OCCO1 (stereo partly shown) [Example 147] | 1800 | –
8 | COc1ccc(C2=NOC(CC(=O)O)C2)cc1C(=O)N[C@@H]1C2CCC(/C2=C/C2CC2)[C@@H]1C(=O)Nc1ccc(F)c(C(F)(F)F)c1 (stereo partly shown) [compound 392] | 50 | –
9 | COc1ccc(-c2cc(C(=O)O)ccc2F)cc1C(=O)N[C@H]1[C@@H](C(=O)Nc2ccc(F)c(C(F)(F)F)c2)[C@H]2CC[C@@H]1/C2=C\c1ccccc1 [compound 80] | – | 11
10 | O=C(N[C@H]1[C@@H](C(=O)Nc2ccc(F)c(C(F)(F)F)c2)[C@H]2CC[C@@H]1/C2=C\C1CC1)c1cc(C2=NOC3CC(CO)CC23)ccc1F (single isomer, unassigned) [compound 717] | 2320 | –
11 | COc1ccc(C2=NOC3(CO)CCCC23)cc1C(=O)N[C@H]1[C@@H](C(=O)Nc2ccc(F)c(C(F)(F)F)c2)[C@H]2CC[C@@H]1/C2=C\C1CC1 (single isomer, unassigned) [compound 616] | 141 | –
12 | CNC(=O)c1ccc(-c2ccc(OC)c(C(=O)N[C@@H]3C4CCC(/C4=C/c4ccccc4)[C@@H]3C(=O)Nc3ccc(F)c(C(F)(F)F)c3)c2)c(F)c1 (stereo partly shown) [compound 196] | 45 | –
13 | COc1ccc(C2CCOCC2)cc1C(=O)NC1C2CCC(/C2=C/C2CCC2)C1C(=O)Nc1ccc(F)c(C(F)(F)F)c1 (stereo not shown) [compound 369] | 65 | –
14 | COc1ccc(C2=NOC3COCC23)cc1C(=O)N[C@H]1[C@@H](C(=O)NC(C)C2CCC2)[C@H]2CC[C@@H]1/C2=C\C1CC1 (single isomer, unassigned) [compound 683] | 626 | –
15 | COc1cc(F)c(F)cc1C(=O)N[C@@H]1C2CCC(C2Cc2ccccc2)[C@@H]1C(=O)Nc1ccc(F)c(C(F)(F)F)c1 (stereo partly shown) [compound 976] | 710 | –
16 | CCC(CC)NC(=O)[C@@H]1[C@H](NC(=O)c2cc(C3=NOC4COCC34)ccc2OC)[C@@H]2CC[C@H]1/C2=C/C1CC1 (stereo partly shown) [compound 611] | 133 | –
17 | COc1ccc(-c2cc(C(F)(F)F)ccc2F)cc1C(=O)N[C@@H]1C2CCC(/C2=C/C2CC(F)(F)C2)[C@@H]1C(=O)Nc1ccc(F)c(C(F)(F)F)c1 (stereo partly shown) [compound 289] | 548 | –

Other lines, results leading:

Row | EC50 [1] [nM] | EC50 (cAMP hRXFP1 HEK293 Assay EC50, HEK293 cells stably expressing human RXFP1, 30 min at room temperature) [nM] | Compound
18 | 5.5 | – | COc1c(F)cc(C2=NOC3CC(CO)CC23)cc1C(=O)N[C@H]1[C@@H](C(=O)Nc2ccc(F)c(C(F)(F)F)c2)[C@H]2CC[C@@H]1/C2=C\C1CC(F)(F)C1 (stereo partly shown) [compound 918]
19 | 11 | – | COc1ccc(-c2cc(C(C)O)on2)cc1C(=O)N[C@@H]1C2CCC(/C2=C/C2CC2)[C@@H]1C(=O)Nc1ccc(F)c(C(F)(F)F)c1 (stereo partly shown) [compound 424]
20 | 7 | – | COc1ccc(-c2cc(C(NC(=O)COc3ccccc3)C(=O)O)ccc2F)cc1C(=O)N[C@@H]1C2CCC(/C2=C/C(F)(F)F)[C@@H]1C(=O)Nc1ccc(F)c(C(F)(F)F)c1 (stereo partly shown) [compound 244]
21 | 3.3 | – | COc1c(F)cc(-c2cnc3n2CC(O)CC3)cc1C(=O)N[C@H]1[C@@H](C(=O)Nc2ccc(F)c(C(F)(F)F)c2)[C@H]2CC[C@@H]1/C2=C\C1CC1 (stereo partly shown) [compound 753]
22 | 22.7 | – | COc1ccc(-c2noc(CCO)c2CCO)cc1C(=O)N[C@H]1[C@@H](C(=O)Nc2ccc(F)c(C(F)(F)F)c2)[C@H]2CC[C@@H]1/C2=C\C1CC1 [compound 531]
23 | 3.5 | – | COc1ccc(-c2cc(C3=NOC4CC(O)CC34)ccc2F)cc1C(=O)N[C@H]1[C@@H](C(=O)Nc2ccc(F)c(C(F)(F)F)c2)[C@H]2CC[C@@H]1/C2=C\C1CC1 (stereo partly shown) [compound 908]
24 | 2.5 | – | COc1ccc(C2=NO[C@H]3CC(CO)C[C@@H]23)cc1C(=O)N[C@H]1[C@@H](C(=O)Nc2ccc(F)c(C(F)(F)F)c2)[C@H]2CC[C@@H]1/C2=C\CC(C)C (stereo partly shown) [compound 822]
25 | 2.1 | – | O=C(N[C@H]1[C@@H](C(=O)NC23CC(F)(C2)C3)[C@H]2CC[C@@H]1/C2=C\C1CC1)c1cc(C2=NOC3CC(CO)CC23)cc(F)c1OCC1CC1 (stereo partly shown) [compound 763]
26 | 2.7 | – | O=C(N[C@H]1[C@@H](C(=O)Nc2ccc(F)c(C(F)(F)F)c2)[C@H]2CC[C@@H]1/C2=C\C1CC1)c1cc(C2=NOC3CC(CO)CC23)ccc1OCC(F)F (stereo partly shown) [compound 781]
27 | 37 | – | COCCOc1ccc(-c2cc(C(=O)O)ccc2F)cc1C(=O)N[C@@H]1C2CCC(/C2=C/C2CC2)[C@@H]1C(=O)Nc1ccc(F)c(C(F)(F)F)c1 (stereo partly shown) [compound 200]
28 | 3 | – | COc1ccc(-c2cc(C3OC(=O)N(c4ccccc4)C3=O)ccc2F)cc1C(=O)N[C@@H]1C2CCC(/C2=C/C2CC2)[C@@H]1C(=O)Nc1ccc(F)c(C(F)(F)F)c1 (stereo partly shown) [compound 255]
29 | 6.1 | – | COc1ccc(C2=NOC3CC(CO)CC23)cc1C(=O)N[C@H]1[C@@H](C(=O)Nc2ccc(F)c(C(F)(F)F)c2)[C@H]2CC[C@@H]1/C2=C\CC1CC(F)(F)C1 (stereo partly shown) [compound 959]
30 | 3.4 | – | COc1ccc(C2=NO[C@H]3COC[C@@H]23)cc1C(=O)N[C@H]1[C@@H](C(=O)Nc2ccc(F)c(C(F)(F)F)c2)[C@H]2CC[C@@H]1/C2=C\CC1CCC1 [compound 829]
31 | 2.5 | – | COc1c(F)cc(C2=NOC3CC(CO)CC23)cc1C(=O)N[C@H]1[C@@H](C(=O)NCC(C)(C)C)[C@H]2CC[C@@H]1/C2=C\C1CC1 (stereo partly shown) [compound 765]
32 | 3.9 | – | COc1ccc(C2=NO[C@H]3C[C@H](CO)CN23)cc1C(=O)N[C@H]1[C@@H](C(=O)Nc2ccc(F)c(C(F)(F)F)c2)[C@H]2CC[C@@H]1/C2=C\C1CC1 [compound 854]
33 | 3.4 | – | COc1cc(C)c(C2=NOC3CC(CO)CC23)cc1C(=O)N[C@H]1[C@@H](C(=O)Nc2ccc(F)c(C(F)(F)F)c2)[C@H]2CC[C@@H]1/C2=C\C1CC1 (stereo partly shown) [compound 740]
34 | 4.3 | – | O=C(N[C@H]1[C@@H](C(=O)Nc2ccc(F)c(C(F)(F)F)c2)[C@H]2CC[C@@H]1/C2=C\C1CC1)c1cc(C2=NOC3CC(CO)CC23)ccc1OCCCF (stereo partly shown) [compound 788]
35 | 1 | – | COc1cc(F)c(C2=NOC3COCC23)cc1C(=O)N[C@@H]1C2CCC(/C2=C/C2CC2)[C@@H]1C(=O)Nc1ccc(F)c(C(F)(F)F)c1 (stereo partly shown) [compound 420]
36 | 4 | – | O=C(N[C@H]1[C@@H](C(=O)Nc2ccc(F)c(C(F)(F)F)c2)[C@H]2CC[C@@H]1/C2=C\C1CC1)c1cc(C2=NOC3COCC23)ccc1OCCCF (stereo partly shown) [compound 786]
37 | 2.5 | – | CN(C)c1ccc(C2=NOC3COCC23)cc1C(=O)N[C@H]1[C@@H](C(=O)Nc2ccc(F)c(C(F)(F)F)c2)[C@H]2CC[C@@H]1/C2=C\C1CC1 (stereo partly shown) [compound 460]
